The inhibition is the drop in the measured response relative to a control, in per cent.

Molecules are shown by their SMILES. Counter-ions that a name gives are not always drawn.

This is an account of results in US11944613B2, “CYP2J2 antagonists in the treatment of pain” (FRAUNHOFER-GESELLSCHAFT ZUR FÖRDERUNG DER ANGEWANDTEN …, priority 2014, dated 2024).

One data set addresses T1, CYP2J2 (Homo sapiens, UniProt P51589).
T1 sequence (P51589 1-502): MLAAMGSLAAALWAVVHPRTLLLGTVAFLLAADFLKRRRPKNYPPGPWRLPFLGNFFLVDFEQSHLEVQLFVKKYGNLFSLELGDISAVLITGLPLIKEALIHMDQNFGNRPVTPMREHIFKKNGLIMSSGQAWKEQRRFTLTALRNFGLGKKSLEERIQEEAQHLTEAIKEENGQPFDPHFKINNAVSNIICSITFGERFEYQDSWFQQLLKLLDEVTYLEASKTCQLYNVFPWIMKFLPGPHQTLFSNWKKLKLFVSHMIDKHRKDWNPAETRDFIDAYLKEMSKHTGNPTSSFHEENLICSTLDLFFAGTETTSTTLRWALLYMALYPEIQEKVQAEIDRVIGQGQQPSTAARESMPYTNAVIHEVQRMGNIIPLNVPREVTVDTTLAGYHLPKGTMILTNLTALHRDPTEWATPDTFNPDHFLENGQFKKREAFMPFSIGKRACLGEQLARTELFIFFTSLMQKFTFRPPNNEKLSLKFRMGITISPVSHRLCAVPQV
The experiment in a line: CYP2J2 P450-Glo luciferase assay (FDA Approved Drug Library screen). The note with it: read-out: Average inhibition CYP2J2 (%).

The next data set addresses CYP3A4 (Homo sapiens, UniProt P08684). Put plainly: in vitro.
The next data set deals with T2, CYP2J6 (Mus musculus, UniProt O54750).
T2 construct: the inventors dissected the sciatic nerve, DRGs and the dorsal spinal cord and quantified epoxylipids in these tissues; from tissue; host or cells: sciatic nerve, DRGs, dorsal spinal cord and plasma of paclitaxel-treated C57BL/6N mice
T2 sequence (O54750 1-501): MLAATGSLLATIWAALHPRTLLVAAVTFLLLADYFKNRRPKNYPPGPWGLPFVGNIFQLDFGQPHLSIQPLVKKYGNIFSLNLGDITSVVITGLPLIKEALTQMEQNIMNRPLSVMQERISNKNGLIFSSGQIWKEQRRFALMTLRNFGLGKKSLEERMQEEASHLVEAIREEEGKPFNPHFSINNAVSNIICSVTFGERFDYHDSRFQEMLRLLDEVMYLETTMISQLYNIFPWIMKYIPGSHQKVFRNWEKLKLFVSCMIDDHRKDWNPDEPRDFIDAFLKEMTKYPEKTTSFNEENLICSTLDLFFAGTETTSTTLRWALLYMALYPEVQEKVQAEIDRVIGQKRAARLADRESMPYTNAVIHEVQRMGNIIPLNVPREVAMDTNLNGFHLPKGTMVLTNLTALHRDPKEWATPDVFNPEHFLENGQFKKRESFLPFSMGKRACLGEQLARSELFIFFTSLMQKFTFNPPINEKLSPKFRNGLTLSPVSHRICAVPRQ
Put plainly: LC-MS/MS epoxylipid levels in tissues of paclitaxel treated mice after terfenadine. The class given is in vivo.

Data set [1] deals with paclitaxel-induced CIPNP in mice.
Protocol: (a) Levels of 9,10-EpOME shown in % of control determined by LC-MS/MS in sciatic nerves, DRGs and the dorsal horn of the spinal cord eight days after treatment with paclitaxel (6 mg·kg-1 i.p. and 1 mg·kg-1 terfenadine (grey) or vehicle (2% DMSO v/v, black)) Data represents mean ±SEM from the DRGs of five mice per group; *p<0.05, **p<0.01, student's t-test. (b) Remaining concentrations of all measured epoxylipids and dihydro-metabolites (9,10-EpOME, 12,13-EpOME, 9,10-DiHOME, 12,13-DiHOME and 14,15-EET) in sciatic nerve, DRGs, dorsal horn of the spinal cord and plasma after administration of terfenadine (1 mg·kg-1). (c) Mechanical thresholds of mice treated with paclitaxel for eight days (6 mg·kg-1 i.p.) that received an intravenous injection of terfenadine (1 or 2 mg kg-1) or vehicle (DMSO 2.5 or 5% (v/v)). The mechanical thresholds were monitored up to 5 h after injection of terfenadine or vehicle. Data represent mean ±SEM from 8-9 mice per group; #, *p<0.05, two-way ANOVA with Bonferroni post hoc test (*1 mg kg-1, #2 mg kg-1 terfenadine). […] Data represent mean ±SEM from 6-9 mice per group.
Paclitaxel was solved in Cremophor EL/Ethanol 1:1 and diluted in saline. The dose for intraperitoneal injection was set to 6 mg/kg as described previously.
For the determination of mechanical allodynia or thermal hypersensitivity, mice were kept in test cages on an elevated grid for at least 2 h to allow accommodation. Baseline measurements were performed using a Dynamic Plantar Aesthesiometer or a Hargreaves Apparatus (Ugo Basile, Comerio, VA, Italy) detecting withdrawal latency of the hind paws after mechanical stimulation. […] Slow movements of the paw were not counted. Paw withdrawal latencies (PWL) were determined in seconds (s) ±0.1 with a cut-off time of 20 s. The non-injected and injected paws were measured alternately in intervals of 5-10 min. […] The non-injected and injected paws were measured alternately in intervals of 5-10 min. […]
The subject of the next data set is DRG neurons. The experiment in a line: Calcium imaging: 9,10-EpOME-evoked calcium transients in DRG neurons. The class given is cell-based, mouse. Conditions: 9,10-EpOME 10 μM, 30 s; antagonist pre-incubated two minutes; AMG 9810 1 μM, HC-030031 20 μM. The procedure:
FIG. 2: Direct effects of 9,10-EpOME on DRG-neurons. (a) Application of 9,10-EpOME [10 μM, 30 s] causes calcium transients on DRG neurons which respond to high potassium (50 mM KCl, 30 s). A representative trace is shown. (b) Dose response relationship of 9,10-EpOME dependent calcium increases in DRG neurons related to the number of responding neurons Data represents the mean ±SEM of five measurements per concentration. (c) and (d) Calcium transients caused by 9,10-EpOME [10 μM, 30 s] can be disrupted using calcium-free medium containing EGTA (2 mM) washed in 2 minutes before and after 9,10-EpOME stimulation. Data represents the mean ±SEM of 24 (calcium-free) or 16 (control) neurons. (e) and (f) Calcium transients of 9,10-EpOME [10 μM, 30 s] can be blocked by a selective TRPV1 antagonist (AMG 9810, 1 μM) but not by a selective TRPA1 antagonist (HC-030031, 20 μM) washed in for two minutes prior to the second 9,10-EpOME stimulation. Data represents the mean ±SEM of 16 (control), 31 (AMG 9810) or 18 (HC-030031) neurons; **p<0.01, student's t-test.
Next, the inventors characterized 9,10-EpOME concerning its effects on DRG-neurons in calcium imaging experiments. […]

The subject of a further data set is wild type BL/6N mice. Put plainly: Thermal and mechanical thresholds after intraplantar or intrathecal 9,10-EpOME. In kind it is in vivo, mouse. The procedure:
FIG. 5: Intraplantar or intrathecal injection of 9,10-EpOME reduces pain thresholds and sensitizes capsaicin induced mechanical thresholds in wild type mice. (a) and (b) C57B1/6N mice received an intraplantar injection of 9,10-EpOME (10 μM) or vehicle (DMSO 0.3% (v/v) in saline). Thermal (a) or mechanical (b) thresholds were monitored for 5 h post injection. Data represents mean ±SEM from eight mice. (c) and (d) Wild type BL/6N mice were injected intrathecally with 9,10-EpOME (10 μM) or vehicle (DMSO 0.3% (v/v) in saline). Thermal (c) or mechanical (d) thresholds were monitored for 2 h (thermal) or 3 h (mechanical) post injection with 15 minute intervals for the first hour and 30 minute intervals for the second hour. Data represents mean ±SEM from eight mice. Die Abbildungen sind nicht mitgeliefert
For the determination of mechanical allodynia or thermal hypersensitivity, mice were kept in test cages on an elevated grid for at least 2 h to allow accommodation. Baseline measurements were performed using a Dynamic Plantar Aesthesiometer or a Hargreaves Apparatus (Ugo Basile, Comerio, VA, Italy) detecting withdrawal latency of the hind paws after mechanical stimulation. For the assessment of the mechanical thresholds, the steel rod was pushed against the mid-plantar hind paw with linear ascending force (0-5 g over 10 seconds, increasing 0.5 g/s) until a fast withdrawal response occurred. Slow movements of the paw were not counted. Paw withdrawal latencies (PWL) were determined in seconds (s) ±0.1 with a cut-off time of 20 s. The non-injected and injected paws were measured alternately in intervals of 5-10 min. For determination of thermal thresholds, mice were kept in test cages on a warmed glass plate (32° C.) for at least 2 h on the first day to allow accommodation. Then, the mid-plantar region of the paws was stimulated with a radiant heat device, consisting of a high intensity projector lamp, until withdrawal occurred. The non-injected and injected paws were measured alternately in intervals of 5-10 min. For all behavioral tests the investigator was blinded for treatment or genotype of the mice.
Treatments: For peripheral injections, 20 μl of 9,10-EpOME [5 μM] (Cayman, Ann Arbor, MI, USA) were injected subcutaneously (s.c.) in the mid-plantar area of the hind paw. […]
The inventors then tested the Galphas-coupled prostanoid receptors for their potential involvement in 9,10-EpOME dependent TRPV1 sensitization in calcium imaging experiments. […] To characterize in vivo effects of 9,10-EpOME, the inventors injected the lipid in hind paws of wild type BL/6N mice and measured the thermal (FIG. 5A) and mechanical thresholds (FIG. 5B) up to 5 h post injection. […] The inventors then injected 9,10-EpOME intrathecally and measured thermal and mechanical thresholds in short time intervals. […]

In a further data set the target is TRPV1 (Mus musculus, UniProt Q704Y3). Put plainly: Calcium imaging: TRPV1 sensitization, double capsaicin stimulation of DRG neurons. The note with it: inhibitor 10 μM, preincubation 1 h; 9,10-EpOME 1 μM.
[2] abbreviates: intraplantar injection in hind paws.

Sequence of CYP3A4 (P08684 whole entry): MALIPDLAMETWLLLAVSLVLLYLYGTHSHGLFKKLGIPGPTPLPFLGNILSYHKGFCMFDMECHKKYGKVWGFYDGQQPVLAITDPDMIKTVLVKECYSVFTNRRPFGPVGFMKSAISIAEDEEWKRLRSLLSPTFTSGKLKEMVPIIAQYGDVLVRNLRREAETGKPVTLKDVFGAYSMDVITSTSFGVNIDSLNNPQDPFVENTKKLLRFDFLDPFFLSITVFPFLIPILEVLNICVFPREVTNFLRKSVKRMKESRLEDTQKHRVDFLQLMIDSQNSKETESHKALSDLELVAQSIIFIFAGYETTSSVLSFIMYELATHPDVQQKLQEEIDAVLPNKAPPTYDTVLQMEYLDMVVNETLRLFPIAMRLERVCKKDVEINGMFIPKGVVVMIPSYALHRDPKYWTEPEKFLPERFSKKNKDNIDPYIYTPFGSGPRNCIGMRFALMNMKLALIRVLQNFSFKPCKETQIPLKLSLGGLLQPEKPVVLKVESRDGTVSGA
Sequence of TRPV1 (Q704Y3 whole entry): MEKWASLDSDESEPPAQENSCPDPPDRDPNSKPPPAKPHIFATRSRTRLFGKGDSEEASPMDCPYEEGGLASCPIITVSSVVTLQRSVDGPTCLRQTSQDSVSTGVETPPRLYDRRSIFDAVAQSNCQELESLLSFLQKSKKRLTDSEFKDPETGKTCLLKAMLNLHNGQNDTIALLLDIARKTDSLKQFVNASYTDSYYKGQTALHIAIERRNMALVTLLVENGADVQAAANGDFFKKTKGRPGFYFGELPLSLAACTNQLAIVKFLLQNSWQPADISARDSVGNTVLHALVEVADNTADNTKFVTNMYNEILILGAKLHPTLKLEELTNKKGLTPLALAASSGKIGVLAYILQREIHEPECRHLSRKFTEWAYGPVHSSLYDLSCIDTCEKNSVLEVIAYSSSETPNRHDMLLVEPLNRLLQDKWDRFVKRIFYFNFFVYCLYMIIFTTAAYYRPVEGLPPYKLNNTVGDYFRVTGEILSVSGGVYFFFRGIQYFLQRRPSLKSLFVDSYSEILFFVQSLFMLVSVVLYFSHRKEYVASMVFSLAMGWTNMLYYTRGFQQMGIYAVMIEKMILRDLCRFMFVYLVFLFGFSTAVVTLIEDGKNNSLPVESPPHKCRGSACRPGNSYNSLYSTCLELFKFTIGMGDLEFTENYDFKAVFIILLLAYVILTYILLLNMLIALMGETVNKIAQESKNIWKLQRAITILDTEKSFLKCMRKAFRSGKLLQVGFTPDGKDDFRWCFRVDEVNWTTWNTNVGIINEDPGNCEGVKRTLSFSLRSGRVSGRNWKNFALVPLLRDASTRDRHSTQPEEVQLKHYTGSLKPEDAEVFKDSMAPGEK
Protocol for CYP2J6: (b) Remaining concentrations of all measured epoxylipids and dihydro-metabolites (9,10-EpOME, 12,13-EpOME, 9,10-DiHOME, 12,13-DiHOME and 14,15-EET) in sciatic nerve, DRGs, dorsal horn of the spinal cord and plasma after administration of terfenadine (1 mg·kg-1).
Sample extraction and standards: Sample extraction was performed as described previously. Briefly, stock solutions with 2500 ng/ml of all analytes were prepared in methanol. Working standards were obtained by further dilution with a concentration range of 0.1-250 ng/ml for EETs, EpOMEs and DiHOMEs and HODEs Sample extraction was performed with liquid-liquid-extraction. Therefore tissue or cell culture medium was extracted twice with 600 μl ethyl acetate. The combined organic phases were removed at a temperature of 45° C. under a gentle stream of nitrogen. The residues were reconstituted with 50 μl of methanol/water/(50:50, v/v), centrifuged for 2 min at 10,000×g and then transferred to glass vials (Macherey-Nagel, Düren, Germany) prior to injection into the LC-MS/MS system.
Instrumentation for measuring epoxylipids and HODEs: The LC-MS/MS system consisted of an API 4000 triple quadrupole mass spectrometer (Applied Biosystems, Darmstadt, Germany), equipped with a Turbo-V-source operating in negative ESI mode, an Agilent 1100 binary HPLC pump and degasser (Agilent, Waldbronn, Germany) and an HTC Pal autosampler (Chromtech, Idstein, Germany) fitted with a 25 μL LEAP syringe (Axel Semrau GmbH, Sprockhövel, Germany). High purity nitrogen for the mass spectrometer was produced by a NGM 22-LC-MS nitrogen generator (cmc Instruments, Eschborn, Germany). […] Quantification was performed with Analyst Software V 1.4.2 (Applied Biosystems, Darmstadt, Germany) employing the internal standard method (isotope-dilution mass spectrometry). Ratios of analyte peak area and internal standard area (y-axis) were plotted against concentration (x-axis) and calibration curves were calculated by least square regression with 1/concentration2 weighting.
Protocol for TRPV1: (a) DRG neurons were double-stimulated with capsaicin (200 nM, 15 s each) and incubated with either vehicle or 9,10-EpOME [1 μM] for two minutes prior to the second capsaicin stimulation. (b) Dose-dependent difference in ratio between the first and the second capsaicin response using the same protocol as described in (a). Data represent the mean ±SEM of the following number of neurons: 27 (control), 26 (250 nM 9,10-EpOME), 21 (500 nM 9,10-EpOME), 19 (750 nM 9,10-EpOME), 41 (1 μM 9,10-EpOME), 18 (2 μM 9,10-EpOME) or 28 (using 50 μM AITC for 20 s instead of capsaicin); *p<0.05, **p<0.01, ***p<0.001 student's t-test.
Data represent mean ±SEM of 15 (vehicle), 19 (EpOME) or 33 neurons (EpOME with H89 preincubation). […] Data represent mean ±SEM of 18 (vehicle), 23 (EpOME) or 39 neurons (EpOME with GFX preincubation); *p<0.05, **p<0.01 student's t-test; n.s. not significant.
Murine DRGs were dissected from spinal segments and directly transferred to ice cold HBSS with CaCl2 and MgCl2 (Invitrogen, Carsbad, CA, USA). Next, isolated DRGs were incubated with collagenase/dispase (500 U/ml Collagenase; 2.5 U/ml Dispase) in neurobasal medium containing L-glutamine [2 mM] penicillin (100 U/ml), streptomycin (100 μg/ml), B-27 and gentamicin (50 μg/ml) (all from Invitrogen, Carlsbad, CA, USA) at 37° C. for 75 min. […]

For `Cc1[nH]cnc1CN1CCc2c(c3ccccc3n2C)C1=O` [c595, Alosetron•HCl], the inhibition at 10 µM on CYP2J2 is 81.8%. Moreover, at CYP3A4, the inhibition at 30 min, 10 μM is 14%.

Take `CC(C)OC(=O)C(C)(C)Oc1ccc(C(=O)c2ccc(Cl)cc2)cc1` [c246, Fenofibrate]: the inhibition at 10 µM at CYP2J2 was 78%. Besides, the inhibition at 30 min, 10 μM on CYP3A4 was -26.2%.

As for `CC(C)(C)c1ccc(C(O)CCCN2CCC(C(O)(c3ccccc3)c3ccccc3)CC2)cc1` (stereo not drawn) [Terfenadine], the “remaining concentrations of all measured epoxylipids in DRGs, spinal dorsal horn and plasma” value on CYP2J6 (1 mg·kg-1 i.v.) is “reduced significantly”. The “9,10-EpOME concentrations in sciatic nerve, DRGs and dorsal spinal cord” value on CYP2J6 (1 mg·kg-1 i.v., two hours, eight days after paclitaxel) was “significant reduction”. Moreover, the “levels of epoxylipids reduced to” value at CYP2J6 (terfenadine treatment) is listed as “about 50%”. Besides, in data set [1] (1 or 2 mg·kg-1 i.v., eight days after paclitaxel), the “duration of increase in mechanical thresholds” value turned out to be 2 h. For the same molecule, the “difference between the two doses in mechanical thresholds” value in data set [1] (1 versus 2 mg·kg-1 i.v.) is reported as “no significant differences”. The “mechanical thresholds of paclitaxel treated mice” value in data set [1] (terfenadine 1 or 2 mg·kg-1 i.v., loratadine 1 mg kg-1 i.v., eight days after paclitaxel) is reported as “significant increase”.

Regarding `CCC(=O)O[C@]1(C(=O)CCl)[C@@H](C)C[C@H]2[C@@H]3CCC4=CC(=O)C=C[C@]4(C)[C@@]3(F)[C@@H](O)C[C@@]21C` [c146, Clobetasol Propionate], the inhibition at 10 µM at CYP2J2 was 78.2%. Also, the inhibition at 30 min, 10 μM against CYP3A4 is -4.3%.

On to `CC(C)c1ccc(NC(=O)Cn2cnc3c2c(=O)n(C)c(=O)n3C)cc1` [HC-030031], for which the “block of the second 9,10-EpOME-evoked calcium transient” value in the data set on DRG neurons is “but not the TRPA1 antagonist HC-030031 could block”.

As for `CCCCC/C=C\CC1OC1CCCCCCCC(=O)O` (stereo not drawn) [9,10-EpOME, 9,10-epoxy-12Z-octadecenoic acid], in the data set on wild type BL/6N mice (setting [2]), the “duration of significant reduction of mechanical thresholds” value amounted to 2 h and the “duration of significant reduction of thermal thresholds” value is recorded as 1 h. For the same molecule, the “duration of decrease of mechanical thresholds” value in the data set with wild type BL/6N mice (intrathecal injection) is on record as “up to 1.5 h”. Further, the thermal thresholds entry with wild type BL/6N mice (intrathecal injection, 30 minutes after i.th. injection) is “significant but rather weak reduction”.

`Cc1cccc(CN2CCN(C(c3ccccc3)c3ccc(Cl)cc3)CC2)c1` (stereo not drawn) [c608, Meclizine Dihydrochloride]: the inhibition at 10 µM on CYP2J2 worked out at 71.5%. For the same molecule, on CYP3A4, the inhibition at 30 min, 10 μM amounted to 17.4%.

On to `Cl.Cl.O=S(=O)(NCCNC/C=C/c1ccc(Br)cc1)c1cccc2cnccc12` [H89 dihydrochloride], for which, on TRPV1, the “effect of kinase inhibitor on 9,10-EpOME-evoked TRPV1 sensitization” value was “significant reduction”.

Take `C#C[C@]1(O)CC[C@H]2[C@@H]3CCC4=CC(=O)CC[C@@H]4[C@H]3CC[C@@]21CC` [c314, Levonorgestrel]: the inhibition at 10 µM at CYP2J2 amounted to 64%. Also, the inhibition at 30 min, 10 μM on CYP3A4 was found to be 5.1%.

As to `CN(C)CCCn1cc(C2=C(c3c[nH]c4ccccc34)C(=O)NC2=O)c2ccccc21`, the “effect of kinase inhibitor on 9,10-EpOME-evoked TRPV1 sensitization” value at TRPV1 is listed as “did not have any effect”.

Consider `CC(C)(C)c1ccc(/C=C/C(=O)Nc2ccc3c(c2)OCCO3)cc1` [AMG 9810], for which the “block of the second 9,10-EpOME-evoked calcium transient” value with DRG neurons is recorded as “could block”.

As for `CC(C)/N=c1\cc2n(-c3ccc(Cl)cc3)c3ccccc3nc-2cc1Nc1ccc(Cl)cc1` [c516, Clofazimine], on CYP2J2, the inhibition at 10 µM turned out to be 79.1%. The inhibition at 30 min, 10 μM against CYP3A4 was -82.9%.

In the case of `CC1(C)O[C@@H]2C[C@H]3[C@@H]4CCC5=CC(=O)CC[C@]5(C)[C@@]4(F)[C@@H](O)C[C@]3(C)[C@]2(C(=O)CCl)O1` [c440, Halcinonide], the inhibition at 10 µM on CYP2J2 was 76.8%. Further, the inhibition at 30 min, 10 μM at CYP3A4 is -18.5%.

Take `C[C@]12CC[C@@H]3c4ccc(O)cc4CC[C@H]3[C@@H]1CC[C@@H]2O` [c054, Estradiol]: the inhibition at 10 µM on CYP2J2 turned out to be 84.4%. Moreover, the inhibition at 30 min, 10 μM on CYP3A4 is 12.1%.
